Read-outs that look alike come from different tables or passages of the source.
Tests used:
[1] = tested on: American dog tick (Dermacentor variabilis) first nymphs [American dog tick(Dermacentor variabilis)第1若虫]; experiment: Efficacy test against American dog tick (Test Example 2), glass container film contact; type: in vivo; conditions: 96 h, read-out: efficacy (number with abnormal behaviour due to compound / number released × 100)
[2] = tested on: cat flea (Ctenocephalides felis) adults [ネコノミ(Ctenocephalides felis)成虫]; experiment: Efficacy test against cat flea (Test Example 1), glass container film contact; type: in vivo; conditions: 96 h, read-out: efficacy (number of insects with abnormal behaviour due to compound / number released × 100)
[3] = 10μg/cm2, 5 first nymphs (mixed sex), 25℃, 4 days, duplicate
[4] = 10μg/cm2, 5 adults (mixed sex), 25℃, 4 days, duplicate

Compound	pest or weed control at 10 µg/cm2 [1, 3] [%]	pest or weed control at 10 µg/cm2 [2, 4] [%]	other results
CON=C(CSC)C(=O)N(C)c1cn(-c2cccnc2)nc1Cl (single isomer, unassigned) [1−142]	≥ 80	–	–
CCON=C(CSC)C(=O)N(CC)c1cn(-c2cccnc2)nc1Cl (single isomer, unassigned) [1−157]	≥ 80	–	–
CSCCC(=O)Nc1cnn(-c2cccnc2)c1 [1−006]	≥ 80	–	–
CSCCC(=O)N(C)c1cn(-c2cccnc2)nc1C [1−018, N−メチル−N−{3−メチル−1−(ピリジン−3−イル)−1H−ピラゾール−4−イル}−3−(メチルチオ)プロパンアミド]	≥ 80	–	–
Cc1nn(-c2cccnc2)cc1NC(=O)NCC(F)(F)F [1−032]	≥ 80	–	–
CCN(C(=O)CCSC)c1cn(-c2cccnc2)nc1Cl [1−033]	≥ 80	–	–
CS(=O)(=O)C1CCCN(c2cnn(-c3cccnc3)c2)C1=O (stereo not shown) [1−035]	≥ 80	–	–
CCN(C(=O)CCSC)c1cnn(-c2cccnc2)c1 [1−044]	≥ 80	–	–
CC(C)(C)OC(=O)Nc1cn(-c2cccnc2)nc1Cl [1−046, tert−ブチル 3−クロロ−1−(ピリジン−3−イル)−1H−ピラゾール−4−イルカーバメート]	≥ 80	–	–
CCN(C(=O)[C@H](C)CSC)c1cn(-c2cccnc2)nc1Cl [1−048(S)−(−), (S)−(−)−N−{3−クロロ−1−(ピリジン−3−イル)−1H−ピラゾール−4−イル}−N−エチル−2−メチル−3−(メチルチオ)プロパンアミド]	–	≥ 80	–
C[C@H](CS(C)(=O)=O)C(=O)N(C)c1cn(-c2cccnc2)nc1Cl [1−054(S)−(+)]	–	≥ 80	–
CCN(C(=O)OC(C)(C)C)c1cn(-c2cccnc2)nc1Cl [1−056, tert−ブチル 3−クロロ−1−(ピリジン−3−イル)−1H−ピラゾール−4−イル(エチル)カーバメート]	≥ 80	–	–
CSCCC(=O)Nc1cn(-c2cccnc2)nc1Cl [1−058]	≥ 80	–	–
CCN(C(=O)NCCSC)c1cn(-c2cccnc2)nc1C [1−060]	≥ 80	–	–
CCCN(C(=O)CCSC)c1cn(-c2cccnc2)nc1Cl [1−063]	≥ 80	–	–
C=CCN(C(=O)CCSC)c1cn(-c2cccnc2)nc1Cl [1−064]	≥ 80	–	–
CCCN(C(=O)C(C)CSC)c1cn(-c2cccnc2)nc1Cl (stereo not shown) [1−066]	≥ 80	–	–
CCN(C(=O)COCSC)c1cn(-c2cccnc2)nc1Cl [1−067]	≥ 80	–	–
CSCC(C)C(=O)Nc1cn(-c2cccnc2)nc1Cl (stereo not shown) [1−074]	–	≥ 80	–
CCC(CSC)C(=O)N(C)c1cn(-c2cccnc2)nc1Cl (stereo not shown) [1−084]	≥ 80	–	–
COCN(C(=O)C(C)CSC)c1cn(-c2cccnc2)nc1Cl (stereo not shown) [1−086]	≥ 80	–	–

Compound	pest or weed control at 10 µg/cm2 [1, 3] [%]	pest or weed control at 10 µg/cm2 [2, 4] [%]	other results
Cc1nn(-c2cccnc2)cc1N(C)C(N)=O [1−094]	≥ 80	–	–
CCSCC(=O)N(CC)c1cn(-c2cccnc2)nc1Cl [1−107]	≥ 80	–	–
CCN(C(=O)CC[S+](C)[O-])c1cn(-c2cccnc2)nc1C (stereo not shown) [1−110]	≥ 80	–	–
CCN(C(=O)CCSC(C)C)c1cn(-c2cccnc2)nc1Cl [1−123]	≥ 80	–	–
CCN(C(=O)CCSCC(F)(F)F)c1cn(-c2cccnc2)nc1Cl [1−124]	≥ 80	–	–
C=C1CCN(c2cn(-c3cccnc3)nc2Cl)C1=O [1−133, 1−{3−クロロ−1−(ピリジン−3−イル)−1H−ピラゾール−4−イル}−3−メチレンピロリジン−2−オン]	≥ 80	–	–
CSCC(C)(C)C(=O)N(C)c1cn(-c2cccnc2)nc1Cl [1−134, N−{3−クロロ−1−(ピリジン−3−イル)−1H−ピラゾール−4−イル}−N,2,2−トリメチル−3−(メチルチオ)プロパンアミド]	≥ 80	–	–
CC(=O)N(C)c1cn(-c2cccnc2)nc1Cl [1−148]	≥ 80	–	–
CCN(C(C)=O)c1cn(-c2cccnc2)nc1Cl [1−149]	≥ 80	–	–
CCCC(=O)N(CC)c1cn(-c2cccnc2)nc1Cl [1−151]	≥ 80	–	–
C=CC(=O)N(CC)c1cn(-c2cccnc2)nc1Cl [1−152, N−{3−クロロ−1−(ピリジン−3−イル)−1H−ピラゾール−4−イル}−N−エチルアクリルアミド]	≥ 80	–	–
CCN(C(=O)CC[S+]([O-])CC(F)(F)F)c1cn(-c2cccnc2)nc1Cl (stereo not shown) [1−154]	≥ 80	–	–
CCN(C(=O)CCS(=O)(=O)CC(F)(F)F)c1cn(-c2cccnc2)nc1Cl [1−155]	≥ 80	–	–
O=C(NCC(F)(F)F)Nc1cn(-c2cccnc2)nc1Cl [1−158]	≥ 80	–	–
CCN(C(=O)C(CSC)=NOC(C)C)c1cn(-c2cccnc2)nc1Cl [1−172]	≥ 80	–	–
CCCON=C(CSC)C(=O)N(CC)c1cn(-c2cccnc2)nc1Cl [1−173]	≥ 80	–	–
CCCCON=C(CSC)C(=O)N(CC)c1cn(-c2cccnc2)nc1Cl [1−184]	≥ 80	–	–
CSCCN(C(C)=O)c1cn(-c2cccnc2)nc1Cl [1−186]	≥ 80	–	–
CC(C)(C)OC(=O)Nc1cn(-c2cccnc2)nc1Br [1−188, tert−ブチル 3−ブロモ−1−(ピリジン−3−イル)−1H−ピラゾール−4−イルカーバメート]	≥ 80	–	–
CCN(C(=O)C(C[S+](C)[O-])OC)c1cn(-c2cccnc2)nc1Cl (stereo not shown) [1−199]	≥ 80	–	–
CCON=C(C[S+](C)[O-])C(=O)N(CC)c1cn(-c2cccnc2)nc1Cl (stereo not shown) [1−208]	≥ 80	–	–

Compound	pest or weed control at 10 µg/cm2 [1, 3] [%]	pest or weed control at 10 µg/cm2 [2, 4] [%]	other results
CCN(C(=O)C(CSC)c1ccccc1)c1cn(-c2cccnc2)nc1Cl (stereo not shown) [1−216]	≥ 80	–	–
CCOCC(=O)N(CC)c1cn(-c2cccnc2)nc1Cl [1−220]	–	≥ 80	–
C=CCON=C(CSC)C(=O)N(CC)c1cn(-c2cccnc2)nc1Cl [1−222]	≥ 80	–	–
CCN(C(=O)C(C)SC(C)=O)c1cn(-c2cccnc2)nc1Cl (stereo not shown) [1−245]	–	≥ 80	–
CCN(C(=O)C(C)SC(C)C)c1cn(-c2cccnc2)nc1Cl (stereo not shown) [1−248]	≥ 80	–	–
CCN(C(=O)C(CSC)=NOCC[Si](C)(C)C)c1cn(-c2cccnc2)nc1Cl [1−268]	–	–	pest or weed control at 10 µg/cm2 [1]: ≥ 80%
CON=C(COCC(F)(F)F)C(=O)N(C)c1cn(-c2cccnc2)nc1Cl [1−273]	≥ 80	–	–
CCN(C(=O)CC(=NOC)C(F)(F)F)c1cn(-c2cccnc2)nc1Cl [1−303]	≥ 80	–	–
CC(C)(C)OC(=O)N(CC(F)(F)F)c1cn(-c2cccnc2)nc1Cl [1−324]	≥ 80	–	–
CC(C)(C)OC(=O)N(CC1CC1)c1cn(-c2cccnc2)nc1Cl [1−343]	≥ 80	–	–
CCSC(C)C(=NOC)Nc1cn(-c2cccnc2)nc1Cl (stereo not shown) [1−356, N−{3−クロロ−1−(ピリジン−3−イル)−1H−ピラゾール−4−イル}−2−(エチルチオ)−N’−メトキシプロパンイミダミド]	≥ 80	–	–
CCN(C(=O)CC(CSC)=NOC)c1cn(-c2cccnc2)nc1Cl [1−367]	≥ 80	–	–
CCNC(=O)NCC(=O)N(CC)c1cn(-c2cccnc2)nc1Cl [1−375]	–	≥ 80	–
CCN(C(=O)OC(C)(C)C)c1cn(-c2cccnc2)nc1OC [1−395]	≥ 80	–	–
CCN(C(=O)CNC(=O)C(F)(F)F)c1cn(-c2cccnc2)nc1Cl [1−409]	≥ 80	–	–
CCN(C(=O)CCC(F)=C(F)F)c1cn(-c2cccnc2)nc1Cl [1−418]	≥ 80	–	–
CCN(C(=O)CSCC(OC)OC)c1cn(-c2cccnc2)nc1Cl [1−434]	–	≥ 80	–
CCN(C(=O)COC(C)(C)C)c1cn(-c2cccnc2)nc1Cl [1−439]	≥ 80	–	–
CCN(C(=O)C(=O)Nc1ccccc1)c1cn(-c2cccnc2)nc1Cl [1−464]	–	≥ 80	–
CCSC(C)C(=S)Nc1cnn(-c2cccnc2)c1 (stereo not shown) [1−480]	≥ 80	–	–
CCc1nn(-c2cccnc2)cc1N(CC)C(=O)C(C)CSC (stereo not shown) [1−484]	–	≥ 80	–

Compound	pest or weed control at 10 µg/cm2 [1, 3] [%]	pest or weed control at 10 µg/cm2 [2, 4] [%]	other results
CCN(C(=O)C(C)CS(C)(=O)=O)c1cn(-c2cccnc2)nc1C (stereo not shown) [1−490]	≥ 80	–	–
CC(CS(C)(=O)=O)C(=O)Nc1cn(-c2cccnc2)nc1Cl (stereo not shown) [1−494]	–	≥ 80	–
CCN(C(=O)NCC(F)(F)F)c1cn(-c2cccnc2)nc1Cl [1−501]	–	≥ 80	–
CCN(C(=O)CCCSC)c1cn(-c2cccnc2)nc1Cl [1−520]	–	≥ 80	–
CC(C)(C)OC(=O)N(CC#N)c1cn(-c2cccnc2)nc1Cl [1−522]	–	≥ 80	–
CCN(C(=O)C(C)CSC)c1cn(-c2cccnc2)nc1C(F)(F)F (stereo not shown) [1−523]	–	≥ 80	–
CCN(C(=O)CCC[S+](C)[O-])c1cn(-c2cccnc2)nc1Cl (stereo not shown) [1−527]	–	≥ 80	–
CCN(C(=O)CCCS(C)(=O)=O)c1cn(-c2cccnc2)nc1Cl [1−528]	–	≥ 80	–
CCNC(=S)Nc1cn(-c2cccnc2)nc1C [1−549]	–	≥ 80	–
CCNC(=O)N(C)c1cn(-c2cccnc2)nc1Cl [1−551]	–	≥ 80	–
CNC(=S)Nc1cn(-c2cccnc2)nc1Cl [1−552]	–	≥ 80	–
CC(C)NC(=S)Nc1cn(-c2cccnc2)nc1Cl [1−554]	–	≥ 80	–
CCN(C(N)=O)c1cn(-c2cccnc2)nc1Cl [1−572]	–	≥ 80	–
CN(C(=O)NCC(F)(F)F)c1cn(-c2cccnc2)nc1Br [1−586]	–	≥ 80	–
CCN(C(=O)NCC(F)(F)F)c1cn(-c2cccnc2)nc1Br [1−587]	–	≥ 80	–
O=C(NCCCl)Nc1cn(-c2cccnc2)nc1Cl [1−593]	–	–	pest or weed control at 10 µg/cm2 [2]: ≥ 80%
C=CCNC(=O)N(CC)c1cn(-c2cccnc2)nc1Cl [1−595]	–	≥ 80	–
CCN(C(=O)C(C)CS(=O)(=O)N(C)C)c1cn(-c2cccnc2)nc1Cl (stereo not shown) [1−596]	–	≥ 80	–
CSCC(=O)N(C)C(C)=Nc1cn(-c2cccnc2)nc1C [3−004, N−メチル−N−[1−{3−メチル−1−(ピリジン−3−イル)−1H−ピラゾール−4−イルイミノ}エチル]−2−(メチルチオ)アセタミド]	≥ 80	–	–

Reference: JP2014001205A, “動物の寄生虫防除剤” (Nissan Chemical Corp, priority 2012, dated 2014)
